Measurements reported in patent US20030144219A1, “Formulations and methods for treatment or amelioration of inflammatory conditions” (priority 2001, published 2003).

Experiments:
[1] = Human ingestion of DHA in studies in support of the invention; assay type: in vivo; details: approximately 800 mg DHA daily
Description: The average dietary intake of DHA (10-60 mg/day) in the American diet is relatively low in comparison to intake in countries where fish or fish products comprise higher percentages of the diet. […] Generally, ranges of about 10-10,000 mg, or more specifically, about 50-2000 mg, or 100-1000 mg will-be preferred. […] Appropriate dosages of other polyunsaturated fatty acids can be estimated with reference to this study, based on known safe ingestion levels, or may be determined empirically, with the guidance provided herein.

[2] = 3.6 gm DHA per day ingested by humans; cited from earlier work

CC/C=C\C/C=C\C/C=C\C/C=C\C/C=C\C/C=C\CCC(=O)O [DHA, all-cis 4,7,10,13,16,19-docosahexaenoic acid]
adverse effects [1]: no apparent adverse effects
toxicities [2]: no apparent toxicities
